According to PubChem BioAssay AID489006 (Sanford-Burnham Center for Chemical Genomics, 2010):
pIC50: −log10 of the molar value. Activity calls are given as the source filed them. The rule behind the calls is not given here.

System: Jurkat NF-kB reporter, luminescence
Assay: NF-kB reporter inhibition in Jurkat cells, dose response, selectivity assay for B-cell receptor NF-kB inhibitor project, cell-based, luminescence (AID 489006)

Structure (SMILES) | IC50 | pIC50
Cc1[nH]c2ccccc2c1/C=N/Nc1nc(Nc2ccccc2)nc(N2CCOCC2)n1 | 35.2 µM (inactive) | –
CCCNC(=O)CSCc1nc(-c2ccc(SC)cc2)oc1C | > 80 µM (inactive) | –
Cc1ccc(/C=C2\SC(=S)N(CCC(=O)NNC(=O)c3ccncc3)C2=O)cc1 | > 80 µM (inactive) | –
CCC(CC)C(=O)Nc1ccc(Sc2ccc([N+](=O)[O-])cc2)cc1 | – | 5.17
Oc1[nH]c2ccccc2c1N=Nc1nc(Nc2ccccc2)nc(N2CCOCC2)n1 | – | 5.03
Cc1nc2cc(-c3cccc(F)c3)nn2c(C)c1CCC(=O)NC(C)CCc1ccco1 (stereo not drawn) | – | 5.38
Cc1nc2cc(-c3cccc(F)c3)nn2c(C)c1CCC(=O)N1CCC2(CC1)OCCO2 | 20.7 µM (inactive) | –
CCCNC(=O)c1ccc(N2CCC3(CC2)CC(c2cccc(Br)c2)=NO3)c(NC(=O)c2ccc(Cl)c([N+](=O)[O-])c2)c1 | > 80 µM (inactive) | –
COc1ccc(/C=C2\SC(=S)N(CCCC(=O)Nc3ccc(O)cc3)C2=O)cc1 | > 80 µM (inactive) | –
C=C(C)[C@@H]1CCC2(C(=O)O)CC[C@]3(C)[C@H](CC[C@@H]4[C@@]5(C)CCC(=O)C(C)(C)[C@@H]5CC[C@]43C)[C@@H]12 (stereo partly drawn) | > 80 µM (inactive) | –
CCN(C(=O)CN1C(=O)NC(c2ccccc2)(c2ccc(C)c(C)c2)C1=O)C1CCCCC1 (stereo not drawn) | 38.9 µM (inactive) | –
Cc1cc(C)c(CN2CCN(C(=O)Cn3cnc4c(NCc5ccccc5)ncnc43)CC2)c(C)c1 | 69.9 µM (inactive) | –
CNC(=O)c1cccn(Cc2ccc(C(F)(F)F)cc2)c1=O | 20.9 µM (inactive) | –
CCCS(=O)(=O)Nc1cccc(-c2ccc3nnc(C)n3n2)c1 | > 80 µM (inactive) | –
Cc1ccc(/C=C2\SC(=S)N(CCCC(=O)NC3CCCC3)C2=O)cc1 | – | 6.14
CC(C)(C)c1ccc(-c2noc(CCC(N)=O)n2)cc1 | – | > 6.80
COc1cc(-c2nc(C(=O)NCC3CCCO3)cc3c2[nH]c2ccccc23)cc(OC)c1OC (stereo not drawn) | – | 4.74
Cc1[nH]c2ccccc2c1/C=N/Nc1nc(Nc2ccc(F)cc2)nc(N2CCOCC2)n1 | 20.9 µM (inactive) | –
CCOC(=O)Cc1ccc(NC(=O)c2ccc(C(C)(C)C)cc2)cc1 | – | 6.60
COc1ccc(Cc2nc(-c3ccc(NC(=O)c4cccnc4)cc3)no2)cc1 | > 80 µM (inactive) | –
CCc1ccc2nc(Nc3nc(COC)cc(=O)[nH]3)nc(C)c2c1 | > 80 µM (inactive) | –
Cc1nc2cc(-c3ccc(Cl)cc3)nn2c(C)c1CCC(=O)NC(C)c1ccc2c(c1)OCCO2 (stereo not drawn) | – | 6.15
OCCN1CCN(C(=S)c2ccc(-c3ccccc3)cc2)CC1 | – | 5.15
COc1ccccc1/C=C1\SC(=S)N(CCC(=O)Nc2cccc(O)c2)C1=O | > 80 µM (inactive) | –
CCN(CC)CCOC(=O)c1ccc(NC(=O)COc2cc(=O)n(CC)c3ccccc23)cc1 | 43.8 µM (inactive) | –
CC(C)C[C@@H](N)c1nnc(SCC(=O)c2ccc(Cl)cc2)o1 | – | 4.95
Cc1ccc(/C=C2/SC(=S)N(CCCC(=O)Nc3ccc(O)cc3)C2=O)cc1 | – | 4.70
CC(C)OCCCNC(=O)c1c(N)n(/N=C/c2ccccn2)c2nc3ccccc3nc12 | 40.2 µM (inactive) | –
